Experiments:
barnyardgrass [1] = experiment: Test B flooded paddy test; format: in vivo, Echinochloa crus-galli; conditions: 1000 g ai/ha, visual rating, scale 0 to 100 (0 no effect, 100 complete control), 13 to 15 days
How it was run: (§1)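 Visual control ratings, 0–100 versus untreated controls, taken after 13 to 15 days in the greenhouse. Blackgrass received a postemergence spray at the 1- to 4-leaf stage (2–18 cm); ducksalad, umbrella sedge and barnyardgrass were flooded-paddy treated at 2 leaves.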

giant foxtail [2] = experiment: Test A pre-/postemergence herbicide test; format: in vivo, Setaria faberi
How it was run: (§2)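 Visual injury scores on a 0–100 scale (100 = complete control) taken about ten days post-treatment in greenhouse against untreated controls; dash means no result. Treatments: preemergence soil spray and postemergence spray to runoff on one- to two-leaf plants 2 to 10 cm tall, surfactant-containing formulation.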

large crabgrass [3] = experiment: Test A pre-/postemergence herbicide test; format: in vivo, Digitaria sanguinalis
How it was run: as §2

barnyardgrass [4] = experiment: Test A pre-/postemergence herbicide test; format: in vivo, Echinochloa crus-galli
How it was run: as §2

redroot pigweed = experiment: Test A pre-/postemergence herbicide test; format: in vivo, Amaranthus retroflexus
How it was run: as §2

pigweed = experiment: Test B pre-/postemergence herbicide test; format: in vivo, Amaranthus retroflexus; conditions: for Pigweed plant response rating: postemergence, visual rating, scale 0 (no effect) to 100 (complete control)
How it was run: (§3)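 Flooded paddy rice and barnyardgrass were treated at the 2-leaf stage; upland plantings received compound either on sown seed or on 1- to 4-leaf seedlings. All were kept 13–15 days in a greenhouse and scored visually, 0–100, relative to untreated plants.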

wild oat = experiment: Test B postemergence herbicide test; format: in vivo, Avena fatua; conditions: postemergence, visual rating, scale 0 (no effect) to 100 (complete control)
How it was run: (§4)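 After treating 2-leaf paddy plants or 2–18 cm postemergence plants (1 to 4 leaves) with formulated chemical, researchers kept them in a greenhouse for 13–15 days. Effects were judged visually versus controls: 0 indicates none, 100 total control.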

velvetleaf [5] = experiment: Test A pre-/postemergence herbicide test; format: in vivo, Abutilon theophrasti
How it was run: as §2

large crabgrass [6] = experiment: Test B pre-/postemergence herbicide test; format: in vivo, Digitaria sanguinalis; conditions: for Crabgrass, Large plant response rating: postemergence, visual rating, scale 0 (no effect) to 100 (complete control)
How it was run: as §3

lambsquarters = experiment: Test B pre-/postemergence herbicide test; format: in vivo, Chenopodium album; conditions: for Lambsquarters plant response rating: postemergence, visual rating, scale 0 (no effect) to 100 (complete control)
How it was run: as §3

wheat = experiment: Test B postemergence herbicide test; format: in vivo, Triticum aestivum; design: key to Wheat plant response rating: 0 = no effect, 100 = complete control; conditions: postemergence, visual rating, scale 0 (no effect) to 100 (complete control)
How it was run: as §4

morningglory [7] = experiment: Test B pre-/postemergence herbicide test; format: in vivo, Ipomoea coccinea; conditions: for Morningglory plant response rating: postemergence, visual rating, scale 0 (no effect) to 100 (complete control)
How it was run: (§5)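 Response was scored visually 13 to 15 days after treatment against untreated greenhouse controls, 0 meaning no effect and 100 complete control. Formulations (solvent mixture plus surfactant) went onto soil after planting, onto foliage of 1- to 4-leaf plants, and onto 2-leaf plants in a flooded paddy set including rice and barnyardgrass.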

barnyardgrass [8] = experiment: Test B pre-/postemergence herbicide test; format: in vivo, Echinochloa crus-galli; conditions: for Barnyardgrass plant response rating: postemergence, visual rating, scale 0 (no effect) to 100 (complete control)
How it was run: as §5

Surinam grass = experiment: Test B pre-/postemergence herbicide test; format: in vivo, Urochloa decumbens; conditions: for Surinam Grass plant response rating: postemergence, visual rating, scale 0 (no effect) to 100 (complete control)
How it was run: as §3

morningglory [9] = experiment: Test A pre-/postemergence herbicide test; format: in vivo, Ipomoea spp.
How it was run: as §2

[10] = system: small flower umbrella sedge; experiment: Test B flooded paddy test; format: in vivo, Cyperus difformis; conditions: 1000 g ai/ha, visual rating, scale 0 to 100 (0 no effect, 100 complete control), 13 to 15 days
How it was run: as §1

blackgrass = experiment: Test B postemergence herbicide test; format: in vivo, Alopecurus myosuroides; conditions: postemergence, visual rating, scale 0 (no effect) to 100 (complete control)
How it was run: as §1

ducksalad = experiment: Test B flooded paddy test; format: in vivo, Heteranthera limosa; conditions: 1000 g ai/ha, visual rating, scale 0 to 100 (0 no effect, 100 complete control), 13 to 15 days
How it was run: as §1

corn = experiment: Test B pre-/postemergence herbicide test; format: in vivo, Zea mays; conditions: for Corn plant response rating: postemergence, visual rating, scale 0 (no effect) to 100 (complete control)
How it was run: as §3

giant foxtail [11] = experiment: Test B pre-/postemergence herbicide test; format: in vivo, Setaria faberi; conditions: for Foxtail, Giant plant response rating: postemergence, visual rating, scale 0 (no effect) to 100 (complete control)
How it was run: as §3

velvetleaf [12] = experiment: Test B pre-/postemergence herbicide test; format: in vivo, Abutilon theophrasti; conditions: for Velvetleaf plant response rating: postemergence, visual rating, scale 0 (no effect) to 100 (complete control)
How it was run: as §3

rice [13] = experiment: Test B flooded paddy test; format: in vivo, Oryza sativa; conditions: 1000 g ai/ha, visual rating, scale 0 to 100 (0 no effect, 100 complete control), 13 to 15 days
How it was run: as §4

rice [14] = experiment: Test B pre-/postemergence herbicide test; format: in vivo, Oryza sativa; conditions: preemergence
How it was run: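 Evaluation is visual, comparing treated with control plants on a scale where 0 means no effect and 100 means full control. Treatments were preemergence, or postemergence on seedlings 2–18 cm tall, and held 13–15 days in the greenhouse.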

cocklebur = experiment: Test B pre-/postemergence herbicide test; format: in vivo, Xanthium strumarium; conditions: for Cocklebur plant response rating: postemergence, visual rating, scale 0 (no effect) to 100 (complete control)
How it was run: as §5

[15] = Postemergence, 500 g ai/ha, 0 to 100 scale, 0 no effect, 100 complete control
[16] = Postemergence, 2000 g ai/ha, 0 to 100 scale, 0 no effect, 100 complete control
[17] = Preemergence, 2000 g ai/ha, visual rating, 0 to 100 scale (0 no effect, 100 complete control)
[18] = preemergence, 500 g ai/ha, visual injury, 0 to 100 scale (0 no effect, 100 complete control)
[19] = 125 g ai/ha, 0 = no effect, 100 = complete control, preemergence
[20] = 500 g ai/ha, visual rating 0-100, 0 no effect, 100 complete control, preemergence

CCOc1cccc(NC(=O)c2cn(C(C)(C)C)nc2C)c1 [Compound 190]
Barnyardgrass plant response rating (barnyardgrass [1]): 20
Foxtail, Giant plant response rating (giant foxtail [2]; [15]): 0
Plant response rating, Foxtail, Giant (giant foxtail [2]; [16]): 0
Foxtail, Giant plant response rating (giant foxtail [2]; [17]): 10
Foxtail, Giant plant response rating (giant foxtail [2]; [18]): 0
Crabgrass, Large plant response rating (large crabgrass [3]; [15]): 10
Plant response rating, Crabgrass, Large (large crabgrass [3]; [16]): 15
Crabgrass, Large plant response rating (large crabgrass [3]; [17]): 70
Crabgrass, Large plant response rating (large crabgrass [3]; [18]): 40
Barnyardgrass plant response rating (barnyardgrass [4]; [15]): 0
Plant response rating, Barnyardgrass (barnyardgrass [4]; [16]): 0
Barnyardgrass plant response rating (barnyardgrass [4]; [17]): 40
Barnyardgrass plant response rating (barnyardgrass [4]; [18]): 20
Pigweed plant response rating (redroot pigweed; [15]): 10
Plant response rating, Pigweed (redroot pigweed; [16]): 20
Pigweed plant response rating (redroot pigweed; [17]): 85
Pigweed plant response rating (redroot pigweed; [18]): 25
Pigweed plant response rating (0 to 100 scale) (pigweed; [19]): 30
Plant response rating, Pigweed (pigweed; [20]): 90
Pigweed plant response rating (pigweed; 125 g ai/ha): 30
Pigweed plant response rating (pigweed; 500 g ai/ha): 70
Oat, Wild plant response rating (wild oat; 125 g ai/ha): 10
Oat, Wild plant response rating (wild oat; 500 g ai/ha): 20
Velvetleaf plant response rating (velvetleaf [5]; [15]): 0
Plant response rating, Velvetleaf (velvetleaf [5]; [16]): 15
Velvetleaf plant response rating (velvetleaf [5]; [17]): 15
Velvetleaf plant response rating (velvetleaf [5]; [18]): 0
Crabgrass, Large plant response rating (0 to 100 scale) (large crabgrass [6]; [19]): 30
Plant response rating, Crabgrass, Large (large crabgrass [6]; [20]): 80
Crabgrass, Large plant response rating (large crabgrass [6]; 125 g ai/ha): 10
Crabgrass, Large plant response rating (large crabgrass [6]; 500 g ai/ha): 20
Lambsquarters plant response rating (0 to 100 scale) (lambsquarters; [19]): 0
Plant response rating, Lambsquarters (lambsquarters; [20]): 50
Lambsquarters plant response rating (lambsquarters; 125 g ai/ha): 30
Lambsquarters plant response rating (lambsquarters; 500 g ai/ha): 80
Wheat plant response rating (wheat; 125 g ai/ha): 0
Wheat plant response rating (wheat; 500 g ai/ha): 0
Morningglory plant response rating (0 to 100 scale) (morningglory [7]; [19]): 0
Plant response rating, Morningglory (morningglory [7]; [20]): 0
Morningglory plant response rating (morningglory [7]; 125 g ai/ha): 50
Morningglory plant response rating (morningglory [7]; 500 g ai/ha): 90
Barnyardgrass plant response rating (0 to 100 scale) (barnyardgrass [8]; [19]): 0
Plant response rating, Barnyardgrass (barnyardgrass [8]; [20]): 30
Barnyardgrass plant response rating (barnyardgrass [8]; 125 g ai/ha): 0
Barnyardgrass plant response rating (barnyardgrass [8]; 500 g ai/ha): 10
Surinam Grass plant response rating (0 to 100 scale) (Surinam grass; [19]): 0
Plant response rating, Surinam Grass (Surinam grass; [20]): 10
Surinam Grass plant response rating (Surinam grass; 125 g ai/ha): 10
Surinam Grass plant response rating (Surinam grass; 500 g ai/ha): 20
Morningglory plant response rating (morningglory [9]; [15]): 10
Plant response rating, Morningglory (morningglory [9]; [16]): 25
Morningglory plant response rating (morningglory [9]; [17]): 25
Morningglory plant response rating (morningglory [9]; [18]): 10
Sedge, Umbrella plant response rating [10]: 60
Blackgrass plant response rating (blackgrass; 125 g ai/ha): 0
Blackgrass plant response rating (blackgrass; 500 g ai/ha): 0
Ducksalad plant response rating (ducksalad): 60
Corn plant response rating (0 to 100 scale) (corn; [19]): 0
Plant response rating, Corn (corn; [20]): 0
Corn plant response rating (corn; 125 g ai/ha): 10
Corn plant response rating (corn; 500 g ai/ha): 10
Foxtail, Giant plant response rating (0 to 100 scale) (giant foxtail [11]; [19]): 0
Plant response rating, Foxtail, Giant (giant foxtail [11]; [20]): 10
Foxtail, Giant plant response rating (giant foxtail [11]; 125 g ai/ha): 10
Foxtail, Giant plant response rating (giant foxtail [11]; 500 g ai/ha): 10
Velvetleaf plant response rating (0 to 100 scale) (velvetleaf [12]; [19]): 0
Plant response rating, Velvetleaf (velvetleaf [12]; [20]): 10
Velvetleaf plant response rating (velvetleaf [12]; 125 g ai/ha): 20
Velvetleaf plant response rating (velvetleaf [12]; 500 g ai/ha): 40
Rice plant response rating (rice [13]): 0
Rice plant response rating (0 to 100 scale) (rice [14]; 125 g ai/ha, 0 = no effect, 100 = complete control): 0
Plant response rating, Rice (rice [14]; 500 g ai/ha, visual rating 0-100, 0 no effect, 100 complete control): 30
Cocklebur plant response rating (0 to 100 scale) (cocklebur; [19]): 0
Plant response rating, Cocklebur (cocklebur; [20]): 0
Cocklebur plant response rating (cocklebur; 125 g ai/ha): 0
Cocklebur plant response rating (cocklebur; 500 g ai/ha): 10

Source: patent US20060069132A1, “Azolecarboxamide herbicides” (priority 2004, published 2006)
